Reference: patent publication US20130224110A1, “USE OF ADENOSINE RECEPTOR SIGNALING TO MODULATE PERMEABILITY OF BLOOD-BRAIN BARRIER” (CORNELL UNIVERSITY, priority 2010, published 2013)

How the values were obtained:
Bend.3 cells = experiment: Transendothelial cell electrical resistance (TEER) assay; assay type: cell-based; settings: mouse BEC monolayers, 1 μM, vs vehicle or media alone
Protocol: Bend.3 cells were grown in ATCC-formulated DMEM supplemented with 10% FBS on 24-well transwell inserts, 8 μm pore size (BD Falcon, Bedford, Mass.) until a monolayer was established. TEER was assessed using a Voltohmeter (EVOMX, World Precision Instruments, Sarasota, Fla.). Background resistance from un-seeded transwells was subtracted from recorded values to determine absolute TEER values. Change in absolute TEER from T0 for each individual transwell was expressed as percentage change and then averaged for each treatment group.

Z310 cells = experiment: Jurkat cell migration across Z310 choroid plexus cell transwell; assay type: cell-based, murine; settings: 24 hours, n=1
Protocol: To test the hypothesis, Transwell membranes were seeded with Z310 cells and allowed to grow to confluencey. 2×10^6 Jurkat cells were added to the upper chamber with or with out NECA (n=1, general AR agonist), CCPA (n=1, A1 AR agonist), CGS 21860 (n=1, A2A AR agonist), or DMSO vehicle(n=1). After 24 hours, migrated cells in the lower chamber were counted. Values are relative to the number of cells that migrate through non-Z310 seeded transwells and the results are shown in FIG. 12.

EAE = EAE induction and scoring (MOG35-55/CFA/PTX); assay type: in vivo, mice; settings: wild type mice, 2 mg/kg (1 mg/kg i.p. and 1 mg/kg s.c.) 1 day prior to EAE induction and daily for 30 days, vs DMSO alone
Description: Cd73^−/− mice have been previously described (Thompson et al., “Crucial Role for Ecto-5′-Nucleotidase (CD73) in Vascular Leakage During Hypoxia,” J. Exp. Med. 200:1395-1405 (2004), which is hereby incorporated by reference in its entirety) and have been backcrossed to C57BL/6 for 14 generations. Cd73^−/− mice have no overt susceptibility to infection and appear normal based on the size and cellular composition of their lymphoid organs and their T and B cell responses in in vivo and in vitro assays (Thompson et al., “Crucial Role for Ecto-5′-Nucleotidase (CD73) in Vascular Leakage During Hypoxia,” J. Exp. Med. 200:1395-1405 (2004), which is hereby incorporated by reference in its entirety). C57BL/6 and tcrα^−/− mice on the C57BL/6 background were purchased from The Jackson Laboratories. Mice were bred and housed under specific pathogen-free conditions at Cornell University or the University of Turku. For adenosine receptor blockade experiments, mice were given drinking water supplemented with 0.6 g/L of caffeine (Sigma) or 2 mg/kg SCH58261 (1 mg/kg s.c. and 1 mg/kg i.p.) in DMSO (45% vol. in PBS) or 45% DMSO alone starting 1 day before EAE induction and continuing throughout the experiment. All procedures performed on mice were approved by the relevant animal review committee.
EAE was induced by subjecting mice to the myelin oligodendrocyte glycoprotein (“MOG”) EAE-inducing regimen as described in Swanborg, “Experimental Autoimmune Encephalomyelitis in Rodents as a Model for Human Demyelinating Disease,” Clin. Immunol. Immunopathol. 77:4-13 (1995) and Bynoe et al., “Epicutaneous Immunization with Autoantigenic Peptides Induces T Suppressor Cells that Prevent Experimental Allergic Encephalomyelitis,” Immunity 19:317-328 (2003), which are hereby incorporated by reference in their entirety. […] Mice were scored daily for EAE based on disease symptom severity; 0=no disease, 0.5-1=weak/limp tail, 2=limp tail and partial hind limb paralysis, 3=total hind limb paralysis, 4=both hind limb and fore limb paralysis, 5=death. […]
As CD73 catalyzes the breakdown of AMP to adenosine and ARs are expressed in the CNS (Tsutsui et al., “A1 Adenosine Receptor Upregulation and Activation Attenuates Neuroinflammation and Demyelination in a Model of Multiple Sclerosis,” J. Neurosci. 24:1521-1529 (2004)); Rosi et al., The Influence of Brain Inflammation Upon Neuronal Adenosine A2B Receptors,” J. Neurochem. 86:220-227 (2003), which are hereby incorporated by reference in their entirety), it was next determined if AR signaling is important during EAE progression. […] Since CD73 is highly expressed on the choroid plexus (FIG. 6C), it was next determined if ARs are also expressed on the choroid plexus. […]

SMILES	TEER (Bend.3 cells)	lymphocyte (Jurkat) migration across the CP (Z310 cells)	EAE development (EAE)
CCNC(=O)[C@H]1O[C@@H](n2cnc3c(N)ncnc32)[C@H](O)[C@@H]1O [NECA, 5′-N-ethylcarboxamido adenosine]	decreases in TEER	induced migration	–
Nc1nc2c(cnn2CCc2ccccc2)c2nc(-c3ccco3)nn12 [SCH58261, 2-(2-Furanyl)-7-(2-phenylethyl)-7H-pyrazolo[4,3-e][1,2,4]triazolo[1,5-c]pyrimidin-5-amine]	–	–	dramatically protected against EAE development
